Patent publication US20190153021A1, “THERAPEUTIC COMPOUNDS” (UNIVERSITY OF IOWA RESEARCH FOUNDATION, priority 2015, published 2019)

Assays:
[1] = simplified steroidal aglycone; cited from earlier work
[2] = In vivo efficacy of OSW-1
[3] = test system: NCI 60 cell-line tumor panel; conditions: cited from earlier work
[4] = Metabolic stability and pharmacokinetics, cleavage of ester groups in mouse blood; type: in vitro ADME
dormant cancer cells = conditions: independent of cell cycle; cited from earlier work

| pharmacokinetics (PK) [4] | metabolic stability: cleavage of the two ester groups ([4]; enzymes in mouse blood, gives major metabolite 2) | Structure (SMILES) | in vitro anticancer activity compared with compound 1 [1] | in vivo efficacy [2] | IC50 ([3]; mean over NCI 60-cell in vitro screen) [nM] | anticancer activities, times more potent than many well-known anticancer drugs in clinical use ([3]; relative potency) | concentration that effectively kills dormant cancer cells (dormant cancer cells) |
| --- | --- | --- | --- | --- | --- | --- | --- |
| – | – | COc1ccc(C(=O)OC2C(OC3C(O)COC(O[C@H]4C[C@@H]5[C@H](CC[C@H]6[C@H]5CC=C5C[C@@H](O)CC[C@@]56C)[C@H]4[C@H](C)CCCC(C)C)C3OC(C)=O)OCC(O)C2O)cc1 (stereo partly shown) [Compound 3] | similar | – | – | – | – |
| poor | quickly cleaved | COc1ccc(C(=O)O[C@H]2[C@H](O[C@@H]3[C@@H](OC(C)=O)[C@H](O[C@H]4C[C@H]5[C@@H]6CC=C7C[C@@H](O)CC[C@]7(C)[C@H]6CC[C@]5(C)[C@@]4(O)[C@H](C)C(=O)CCC(C)C)OC[C@@H]3O)OC[C@@H](O)[C@@H]2O)cc1 [OSW-1] | – | relatively weak | 0.78 | 10-100 times | sub-nM |
